Data published in patent US5753679A, “Benzyl-piperidine derivatives” (priority 1995, dated 1998).

Molecular target: T1, dopamine D4 receptor (Homo sapiens, UniProt P21917)
T1 construct: expressed in transfected cells; host or cells: CHO (Chinese Hamster Ovary) cells, D4-CHO, crude membranes
T1 sequence (P21917 1-419): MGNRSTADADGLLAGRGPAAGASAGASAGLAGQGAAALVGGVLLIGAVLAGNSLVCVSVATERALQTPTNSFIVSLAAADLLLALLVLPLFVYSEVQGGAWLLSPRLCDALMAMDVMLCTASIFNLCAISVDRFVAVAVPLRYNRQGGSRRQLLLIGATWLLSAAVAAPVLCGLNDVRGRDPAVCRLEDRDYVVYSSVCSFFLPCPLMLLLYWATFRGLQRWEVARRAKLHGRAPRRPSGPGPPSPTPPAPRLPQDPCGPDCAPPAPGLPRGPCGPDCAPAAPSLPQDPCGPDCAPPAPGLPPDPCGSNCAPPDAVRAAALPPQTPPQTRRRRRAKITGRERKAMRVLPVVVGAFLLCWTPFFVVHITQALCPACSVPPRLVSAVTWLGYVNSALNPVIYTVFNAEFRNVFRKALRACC
Assay: Binding to the D4 receptor, [3H]-spiperone displacement, D4-CHO membranes
Settings: not given
Experimental: The compounds were characterized by a comparison in binding behaviour to the D4 receptor and to the D2 receptor. CHO cells (Chinese Hamster Ovary) were used in the test. Crude membranes were isolated from D4 --CHO and D2 --CHO cells by ultracentrifugation and were stored at -80° C. After thawing and homogenization in a buffer solution (50 mM Tris, 1 mM EDTA, 5 mM KCI, 1.5 mM CaCI2, 4 mM MgCI2, pH 7.4) they were incubated at room temperature for 90 minutes with 200 pM [^3 H]-spiperone and increasing concentrations (1×10^-11 M to 1×10^-4 M) of the test compound. A non-specific binding by the incubation was established in the presence of 1×10^-5 M (+)-butaclamol.
The unbound radioligand was removed by filtration through a GFIC glass filter and the bound radioactivity was determined by flash emission in a Packard Top Count.
It was determined using ^3 H-spiperone. The calculation of the value was effected with a ligand.

SMILES	Ki
Nc1ccccc1C(=O)OC1CCN(Cc2ccccc2)CC1 [A/5a, 1-Benzyl-piperidin-4-yl 2-amino-benzoate]	4 nM

Same assay, conditions: [3H]-spiperone 200 pM, D4-CHO crude membranes, room temperature, 90 minutes, pH 7.4; read-out: Ki at D4

SMILES	Ki
Nc1ccc(C(=O)OC2CCN(Cc3ccccc3)CC2)nc1 [B/8b, 1-benzyl-piperidin-4-yl 5-amino-picolinate]	16.4 nM
O=C(OC1CCN(Cc2ccccc2)CC1)c1ccc(Br)cc1 [C/19b, 1-Benzyl-piperidin-4-yl 4-bromo-benzoate]	10 nM
O=C(OC1CCN(Cc2ccccc2)CC1)c1ccc(I)cc1 [D/22a, 1-Benzyl-piperidin-4-yl 4-iodo-benzoate]	15 nM
Cc1ccccc1C(=O)OC1CCN(Cc2ccccc2)CC1 [E/24a, 1-Benzyl-piperidin-4-yl 2-methyl-benzoate]	6 nM
Cc1ccc(C(=O)OC2CCN(Cc3ccccc3)CC2)cc1 [F/25a, 1-Benzyl-piperidin-4-yl 4-methyl-benzoate]	8 nM
CNc1ccc(C(=O)OC2CCN(Cc3ccccc3)CC2)cc1 [G/32b, 1-Benzyl-piperidin-4-yl 4-methylamino-benzoate]	5 nM
O=C(OC1CCN(Cc2ccc(Cl)cc2)CC1)c1ccccc1 [H/58c, 1-(4-Chloro-benzyl)-piperidin-4-yl benzoate]	7.3 nM
Cc1ccc(C(=O)OC2CCN(Cc3ccc(Cl)cc3)CC2)cc1 [I/59a, 1-(4-Chloro-benzyl)-piperidin-4-yl 4-methyl-benzoate]	15 nM
O=C(OC1CCN(Cc2ccc(Cl)cc2)CC1)c1ccc(Cl)cc1 [J/82a, 1-(4-Chloro-benzyl)-piperidin-4-yl 4-chloro-benzoate]	18 nM
Cc1ccc(CN2CCC(OC(=O)c3ccc(C)cc3)CC2)cc1 [L/79a, 1-(4-Methyl-benzyl)-piperidin-4-yl 4-methyl-benzoate]	5.2 nM
O=C(OC1CCN(Cc2cccc([N+](=O)[O-])c2)CC1)c1ccccc1 [M/70b, 1-(3-Nitro-benzyl)-piperidin-4-yl benzoate]	13 nM
Cc1ccc(C(=O)OC2CCN(Cc3ccccc3)CC2)c(C)c1 [N/46a, 1-benzyl-piperidin-4-yl 2,4-dimethyl-benzoate]	9 nM
O=C(OC1CCN(Cc2ccc(F)cc2)CC1)c1ccccc1 [O/64b, 1-(4-Fluoro-benzyl)-piperidin-4-yl benzoate]	18 nM
Cc1ccc(C(=O)OC2CCN(Cc3cccc([N+](=O)[O-])c3)CC2)cc1 [P/71a, 1-(3-Nitro-benzyl)-piperidin-4-yl 4-methyl-benzoate]	19 nM
Cc1ccc(C(=O)OC2CCN(Cc3cccc(N)c3)CC2)cc1 [Q/73a, 1-(3-Amino-benzyl)-piperidin-4-yl 4-methyl-benzoate]	19 nM
Cc1ccc(C(=O)OC2CCN(Cc3ccccc3N)CC2)cc1 [R/69a, 1-(2-Amino-benzyl)-piperidin-4-yl 4-methyl-benzoate]	17.5 nM
COc1ccc(CN2CCC(OC(=O)c3ccccc3)CC2)cc1 [S/80c, 1-(4-Methoxy-benzyl)-piperidin-4-yl benzoate]	15 nM
Cc1ccc(CN2CCC(OC(=O)c3ccccc3)CC2)cc1 [k/78b, 1-(4-Methyl-benzyl)-piperidin-4-yl benzoate]	3.8 nM
